Experimental data as given in US8481495B2 (TetraLogic Pharmaceuticals Corporation, priority 2009, dated 2013).

Assays:
SK-OV-3 cells = assay: MTT cell growth inhibition assay in ovarian cancer cell line SK-OV-3; format: cell-based; details: Homo sapiens, 72 hrs incubation, read-out: SKOV3, nM (CC50, concentration giving 50% cell survival, as range)
Procedure: Compounds of the invention also were tested for their ability to inhibit the growth of an ovarian cancer cell line, SK-OV-3. A known assay previously used for measuring cell growth (as described in Hansen, M. B., Nielsen, S. E., and Berg, K. (1989) J. Immunol. Methods 119, 203-210 and incorporated herein by reference in its entirety) was used. Briefly, SK-OV-3 cells are seeded in 96-well plates in McCoy's medium containing 10% fetal bovine serum albumin (5,000 per well) and incubated overnight at 37° C. The next day, test compounds are added at various concentrations (0.003-10 μM) and the plates are incubated at 37° C. for an additional 72 hrs. This incubation time was considered to be optimal for measuring inhibitory effects of the different compounds tested. 50 microliters of 5 mg/mL MTT reagent is added to each well and the plates are incubated at 37° C. for another three (3) hours. At the end of the three (3) hour incubation period, 50 microliters of DMSO is added to each well to dissolve cells and the optical density (OD) of the wells is measured with a microplate reader (Victor^2 1420™, Wallac, Finland) at 535 nm. Cell survival (CS) was calculated using the following equation: CS=(OD treated well/mean OD control wells)×100%.
The CC50 (reported in the following tables), is defined as the drug concentration that results in 50% cell survival (CS), and is derived by calculating the point where the dose-response curve crosses the 50% CS point using GraphPad Prism® graphing software. The reported CC50 values are supplied as ranges (A=<0.1 μM, B=0.1 μM to 1 μM, C=>1 μM to 10 μM, D=>10 μM).

XIAP BIR-3 = target: T1, XIAP BIR-3 (Homo sapiens, UniProt P98170); assay: Fluorescence polarization binding to XIAP BIR-3 with labeled peptide AbuRPF-K(5-Fam)-NH2; details: XIAP BIR-3, 40 nM BIR3, 5 nM labeled peptide, 15 min RT, pH 7.5; read-out: XIAP, nM (binding affinity KD, as range)
T1 construct: 40 nM of the respective IAP BIR3
Procedure: (§1) The binding affinities of the compounds are reported as a KD value (μM). Briefly, various concentrations of test peptides were mixed with 5 nM of the fluorescently labeled peptide (i.e., a mutated N-terminal Smac peptide-AbuRPF-K(5-Fam)-NH2) and 40 nM of the respective IAP BIR3 for 15 min at RT in […] of 0.1M Potassium Phosphate buffer, pH 7.5 containing […] bovine g-globulin. Following incubation, the polarization values (mP) were measured on a Victor2V™ (available from PerkinElmer® Life Sciences) using a 485 nm excitation filter and a 520 nm emission filter. The reported binding affinities (KD values) are supplied as ranges (A=<0.1 μM, B=0.1 μM to 1 μM, C=>1 μM to 10 μM, D=>10 μM).

cIAP-1 BIR-3 = target: T2, cIAP-1 BIR-3 (Homo sapiens, UniProt Q13490); assay: Fluorescence polarization binding to cIAP-1 BIR-3 with labeled peptide AbuRPF-K(5-Fam)-NH2; details: cIAP-1 BIR-3, 40 nM BIR3, 5 nM labeled peptide, 15 min RT, pH 7.5; read-out: cIAP1, nM (binding affinity KD, as range)
T2 construct: 40 nM of the respective IAP BIR3
Procedure: as §1

T1 sequence (P98170 241-356 limits assumed): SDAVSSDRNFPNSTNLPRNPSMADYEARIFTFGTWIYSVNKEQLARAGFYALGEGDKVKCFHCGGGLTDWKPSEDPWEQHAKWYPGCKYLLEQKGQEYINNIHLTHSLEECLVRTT
T2 sequence (Q13490 253-363 limits assumed): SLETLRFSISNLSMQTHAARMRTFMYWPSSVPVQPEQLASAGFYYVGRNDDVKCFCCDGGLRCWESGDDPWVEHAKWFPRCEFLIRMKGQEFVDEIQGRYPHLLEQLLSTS

SMILES	Kd (XIAP BIR-3) [nM]	Kd (cIAP-1 BIR-3) [nM]	CC50 (SK-OV-3 cells) [nM]
CN[C@@H](C)C(=O)N[C@H](C(=O)N1CC[C@@H]2[C@H]1[C@@H](C(=O)N[C@@H]1CCCc3ccccc31)CN2S(C)(=O)=O)C1CCCCC1 [Example 1, 4-[2-Cyclohexyl-2-(2-methylamino-propionylamino)-acetyl]-1-methanesulfonyl-octahydro-pyrrolo[3,2-b]pyrrole-3-carboxylic acid (1,2,3,4-tetrahydro-naphthalen-1-yl)-amide]	< 100	< 100	< 100
CN[C@@H](C)C(=O)N[C@H](C(=O)N1CC[C@@H]2[C@H]1[C@@H](C(=O)NCc1ccccc1)CN2S(C)(=O)=O)C1CCCCC1 [Example 2, 4-[2-Cyclohexyl-2-(2-methylamino-propionylamino)-acetyl]-1-methanesulfonyl-octahydro-pyrrolo[3,2-b]pyrrole-3-carboxylic acid benzylamide]	< 100	< 100	< 100
CN[C@@H](C)C(=O)N[C@H](C(=O)N1CC[C@@H]2[C@H]1[C@@H](C(=O)N[C@H]1CCCc3ccccc31)CN2S(C)(=O)=O)C1CCCCC1 [Example 4, 4-[2-Cyclohexyl-2-(2-methylamino-propionylamino)-acetyl]-1-methanesulfonyl-octahydro-pyrrolo[3,2-b]pyrrole-3-carboxylic acid (1,2,3,4-tetrahydro-naphthalen-1-yl)-amide]	< 100	< 100	100 to 1000
CN[C@@H](C)C(=O)N[C@H](C(=O)N1CC[C@@H]2[C@H]1[C@@H](C(=O)N[C@H](C)c1ccccc1)CN2S(C)(=O)=O)C1CCCCC1 [Example 7, 4-[2-Cyclohexyl-2-(2-methylamino-propionylamino)-acetyl]-1-methanesulfonyl-octahydro-pyrrolo[3,2-b]pyrrole-3-carboxylic acid (1-phenyl-ethyl)-amide]	100 to 1000	< 100	100 to 1000

Further lines, with some results ahead:

Kd (XIAP BIR-3) [nM]	Kd (cIAP-1 BIR-3) [nM]	SMILES	CC50 (SK-OV-3 cells) [nM]
< 100	< 100	CN[C@@H](C)C(=O)N[C@H](C(=O)N1CC[C@@H]2[C@H]1[C@@H](C(=O)NCc1ccc(F)cc1)CN2S(C)(=O)=O)C1CCCCC1 [Example 3, 4-[2-Cyclohexyl-2-(2-methylamino-propionylamino)-acetyl]-1-methanesulfonyl-octahydro-pyrrolo[3,2-b]pyrrole-3-carboxylic acid 4-fluoro-benzylamide]	< 100
1000 to 10000	< 100	CN[C@@H](C)C(=O)N[C@H](C(=O)N1CC[C@@H]2[C@H]1[C@@H](C(=O)NC1CCCCC1)CN2S(C)(=O)=O)C1CCCCC1 [Example 5, 4-[2-Cyclohexyl-2-(2-methylamino-propionylamino)-acetyl]-1-methanesulfonyl-octahydro-pyrrolo[3,2-b]pyrrole-3-carboxylic acid cyclohexylamide]	1000 to 10000
< 100	< 100	CN[C@@H](C)C(=O)N[C@H](C(=O)N1CC[C@@H]2[C@H]1[C@@H](C(=O)NC(c1ccccc1)c1ccccc1)CN2S(C)(=O)=O)C1CCCCC1 [Example 6, 4-[2-Cyclohexyl-2-(2-methylamino-propionylamino)-acetyl]-1-methanesulfonyl-octahydro-pyrrolo[3,2-b]pyrrole-3-carboxylic acid benzhydryl-amide]	100 to 1000
100 to 1000	< 100	CN[C@@H](C)C(=O)N[C@H](C(=O)N1CC[C@@H]2[C@H]1[C@@H](C(=O)Nc1ccccc1)CN2S(C)(=O)=O)C1CCCCC1 [Example 8, 4-[2-Cyclohexyl-2-(2-methylamino-propionylamino)-acetyl]-1-methanesulfonyl-octahydro-pyrrolo[3,2-b]pyrrole-3-carboxylic acid phenylamide]	< 100
